The source of these data is PMC4585962, “A peptide factor secreted by Staphylococcus pseudintermedius exhibits properties of both bacteriocins and virulence factors” (Scientific Reports, 2015).

One series concerns B. subtilis. Description: Bactericidal test, plating on TSA after incubation. Format: cell-based, Bacillus subtilis. The conditions noted are these: 1 × 10^4 CFU incubated with 1 μM bacteriocin for 30 minutes (data not shown).
For a further series, the target named is T1, FPRL-1 (Homo sapiens, UniProt P25090).
T1 construct: host or cells: CHO-K1
Description: Formyl peptide receptor assay, cAMP-GLO, recombinant CHO-K1 cells. Format: cell-based. The following applies: 10 pM–5 μM BacSp222, CHO-K1 cells overexpressing FPRL-1, cAMP-GLO; fMLP positive control (data not shown). As to the method: Activation of the cellular formyl-peptide receptor was assayed using cAMPZen FroZen N-formyl peptide (FPRL1) human recombinant CHO-K1 cells (Perkin-Elmer) and a cAMP-GLO bioluminescent assay (Promega) largely according to the protocols provided by the manufacturers. Formyl-methionyl-leucyl-phenylalanine peptide (fMLP, Sigma) was used as a positive control, and the BacSp222 concentrations tested were 0.01, 0.1, 1.0, 10, 100, 1000, and 5000 nM.

For another series, the system named is HeLa cells. Description: Cytotoxicity, LDH and MTT assays. Format: cell-based, human. The following applies: 4 h exposure, said to be similar to the other cell types (Fig. S7). The method, then: Human skin fibroblasts (HSF, ATCC CRL-2522), adipose-derived stem cells (ASCs, ATCC PCS-500-011), and HeLa human epithelioid cervix carcinoma cells (ATCC CCL-2) were maintained in Dulbecco’s modified Eagle’s medium (DMEM, Sigma) containing 1 g/l glucose, 10% (v/v) foetal bovine serum (FBS), 1 U/ml penicillin, 1 μg/ml streptomycin, and 2.5 μg/ml amphotericin B. Murine P388/D1 monocyte/macrophage cells (ATCC CCL-46) and murine RAW264.7 macrophage-like cells (ATCC TIB-71) were cultured in DMEM containing 4.5 g/l glucose, 5% (v/v) FBS, and antibiotics, as indicated above. Keratinocytes from human skin were grown in KBM Gold Medium (Lonza). All cells were incubated in standard conditions (5% CO2, 37 °C, >95% humidity). […] After a 30-min incubation (RT, in the dark), the reaction was stopped, and the absorbance was measured with a microplate reader (PowerWave X, BioTek Instruments) at 490 nm, followed by subtraction of the absorbance reference value at 690 nm. […] The absorbance of solubilized purple formazan was measured at 540 nm, followed by subtraction of the absorbance reference value at 690 nm. […] The amount of released haemoglobin was spectrophotometrically determined at 540 nm and compared with a positive control (erythrocytes lysed with 1% sodium dodecyl sulphate).
(In general: Tetrazolium dyes change colour on reduction, which living cells bring about.)

The next series has as its system S. aureus RN4220 (pCN68). In words: GFP release assay. The following applies: 2 × 10^6 CFU in PBS, 1 h 37 °C, 0.23 to 15 μM BacSp222, fluorescence of supernatant 480/510 nm. The series is classed as cell-based, Staphylococcus aureus. The method, then:
The bacteria transformed with GFP-encoding plasmids (pCN68[59] for S. aureus RN4220; pALCP2G[60] for B. subtilis 1A751[61] and E. coli DH5α) were grown overnight in TSB supplemented with appropriate antibiotics, washed twice and finally suspended in PBS. Fifty microliters of the suspensions containing 2 × 10^6 CFU of bacteria were then incubated for 1 h at 37 °C with serial dilutions of BacSp222 at concentrations ranging from 0.23 to 15 μM. Then, the bacteria were spun down, and the fluorescence in the supernatant was determined (Synergy H1 microplate reader, BioTek, 480/510 nm excitation/emission wavelengths). As the controls for 100% GFP release, S. aureus and B. subtilis were lysed using lysostaphin and chicken egg white lysozyme (Sigma), respectively, whereas the E. coli cells were disrupted by ultrasonication.

“Also recorded” adds a separate entry of the source. No end group written: not given here. *: point of attachment. For = O=C*

T1 sequence (P25090 whole entry): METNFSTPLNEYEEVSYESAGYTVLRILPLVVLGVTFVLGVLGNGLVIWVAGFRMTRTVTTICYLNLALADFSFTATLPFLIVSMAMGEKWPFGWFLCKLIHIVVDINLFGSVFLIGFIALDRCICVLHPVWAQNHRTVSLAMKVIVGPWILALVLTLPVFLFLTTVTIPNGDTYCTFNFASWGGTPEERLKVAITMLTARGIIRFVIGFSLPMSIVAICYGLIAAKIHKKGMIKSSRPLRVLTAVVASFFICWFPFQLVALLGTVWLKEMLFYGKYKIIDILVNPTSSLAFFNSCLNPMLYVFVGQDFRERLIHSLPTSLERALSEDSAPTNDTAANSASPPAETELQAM

With “For-MAGLLRFLLSKGRALYNWAKSHVGKVWEWLKSGATYEQIKEWIENALGWR [BacSp222]”, the “colonies after plating on TSA” value in the series with B. subtilis was “complete absence of the colonies”. Also, the “stimulation of formyl-peptide receptor” value on FPRL-1 is given as “not able to stimulate; also recorded: did not activate”. For the same substance, the cytotoxic effect entry in the series with HeLa cells was “sigmoidal, dose-dependent cytotoxic effect”. Further, the “leakage of GFP from recombinant cells” value in the series on S. aureus RN4220 (pCN68) is “dose-dependent leakage of GFP was observed”.
